Results on 8 compounds are retold here after patent US7507717B2 (Xenome Ltd., priority 2002, dated 2009).

Test [1] has as its target T1, human noradrenaline transporter (hNET) (Homo sapiens, UniProt P23975).
T1 construct: expressed in transfected cells; host or cells: COS-7 cells (ATCC), transient transfection with metafectene
The test is described as follows: biochemical. The format is binding. Conditions: for IC50: Av IC50 Displacement of 3H-nisoxetine from hNET. (In general: In a radioligand displacement assay an active substance lowers the binding of a labelled ligand.)

Test [2] deals with T1, human noradrenaline transporter (hNET). Nature of the test: cell-based.

Residues, ends and D or L forms follow the SMILES beside them.

T1 sequence (P23975 whole entry): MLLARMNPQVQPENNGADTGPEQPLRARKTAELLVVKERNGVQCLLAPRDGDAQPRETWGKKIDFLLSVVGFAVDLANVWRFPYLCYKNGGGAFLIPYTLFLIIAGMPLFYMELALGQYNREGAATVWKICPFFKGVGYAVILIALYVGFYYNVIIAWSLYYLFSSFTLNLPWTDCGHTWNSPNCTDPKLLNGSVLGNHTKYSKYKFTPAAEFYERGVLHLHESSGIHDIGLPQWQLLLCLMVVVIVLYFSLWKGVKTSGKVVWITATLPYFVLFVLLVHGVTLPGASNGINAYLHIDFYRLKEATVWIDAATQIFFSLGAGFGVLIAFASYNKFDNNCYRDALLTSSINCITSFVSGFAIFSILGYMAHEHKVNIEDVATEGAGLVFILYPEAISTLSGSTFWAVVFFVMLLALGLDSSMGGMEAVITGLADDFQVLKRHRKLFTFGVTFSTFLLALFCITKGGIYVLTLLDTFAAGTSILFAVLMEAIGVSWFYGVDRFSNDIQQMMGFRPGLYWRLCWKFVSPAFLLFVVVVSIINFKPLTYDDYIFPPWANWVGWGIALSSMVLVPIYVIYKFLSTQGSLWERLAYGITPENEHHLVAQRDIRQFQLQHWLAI

Consider `CC(C)C[C@@H]1NC(=O)[C@H](CCCCN)NC(=O)[C@H](Cc2ccc(O)cc2)NC(=O)CNC(=O)[C@@H]2CSSC[C@H](NC1=O)C(=O)N[C@@H](Cc1c[nH]cn1)C(=O)N1CCC[C@H]1C(=O)N[C@H](C(N)=O)CSSC[C@H](NC(=O)[C@@H](NC(=O)CNC(=O)[C@@H](N)CC(N)=O)C(C)C)C(=O)N2` [compound 146], for which the IC50 was 3090 nM in test [1] and 741 nM in test [2].
With `CC(C)C[C@H](NC(=O)[C@H](CC(=O)O)NC(=O)[C@H](CCCCN)NC(=O)[C@@H](N)Cc1c[nH]c2ccccc12)C(=O)N[C@H]1CSSC[C@@H](C(N)=O)NC(=O)[C@@H]2CCCN2C(=O)[C@H](Cc2c[nH]cn2)NC(=O)[C@@H]2CSSC[C@H](NC1=O)C(=O)NCC(=O)N[C@@H](Cc1ccc(O)cc1)C(=O)N[C@@H](CCCCN)C(=O)N[C@@H](CC(C)C)C(=O)N2` [compound 85] (HELM PEPTIDE1{W.K.D.L.C.C.G.Y.K.L.C.H.P.C.[am]}$PEPTIDE1,PEPTIDE1,5:R3-14:R3|PEPTIDE1,PEPTIDE1,6:R3-11:R3$$$V2.0), the half-maximal inhibitory concentration (IC50) in test [1] was 309 nM; in test [2], 89.1 nM.
In turn, `CC(C)C[C@@H]1NC(=O)[C@H](CCCCN)NC(=O)[C@H](Cc2ccc(O)cc2)NC(=O)CNC(=O)[C@@H]2CSSC[C@H](NC1=O)C(=O)N[C@@H](Cc1c[nH]cn1)C(=O)N1CCC[C@H]1C(=O)N[C@H](C(N)=O)CSSC[C@H](NC(=O)[C@@H](NC(=O)CNC(=O)[C@@H](N)CC(N)=O)[C@@H](C)O)C(=O)N2` [compound 138] (HELM PEPTIDE1{N.G.T.C.C.G.Y.K.L.C.H.P.C.[am]}$PEPTIDE1,PEPTIDE1,4:R3-13:R3|PEPTIDE1,PEPTIDE1,5:R3-10:R3$$$V2.0) had a concentration for half-maximal inhibition (IC50) in test [1] of 2290 nM.
For the compound `CC(C)C[C@@H]1NC(=O)[C@H](CCCCN)NC(=O)[C@H](Cc2ccc(O)cc2)NC(=O)CNC(=O)[C@@H]2CSSC[C@H](NC1=O)C(=O)N[C@@H](Cc1c[nH]cn1)C(=O)N1CCC[C@H]1C(=O)N[C@H](C(N)=O)CSSC[C@H](NC(=O)[C@@H](NC(=O)[C@H](CCCCN)NC(=O)[C@@H](N)CC(N)=O)C(C)C)C(=O)N2` [compound 122] (HELM PEPTIDE1{N.K.V.C.C.G.Y.K.L.C.H.P.C.[am]}$PEPTIDE1,PEPTIDE1,4:R3-13:R3|PEPTIDE1,PEPTIDE1,5:R3-10:R3$$$V2.0), in test [1], the half-maximal inhibitory concentration (IC50) was 1320 nM.
Same read-out and setting: with `CC(=O)N[C@@H](Cc1ccc(O)cc1)C(=O)N[C@@H](CC(N)=O)C(=O)NCC(=O)N[C@H](C(=O)N[C@H]1CSSC[C@@H](C(N)=O)NC(=O)[C@@H]2CCCN2C(=O)[C@H](Cc2c[nH]cn2)NC(=O)[C@@H]2CSSC[C@H](NC1=O)C(=O)NCC(=O)N[C@@H](Cc1ccc(O)cc1)C(=O)N[C@@H](CCCCN)C(=O)N[C@@H](CC(C)C)C(=O)N2)C(C)C` [compound 161] the figure was 6170 nM; with `CC(C)C[C@@H]1NC(=O)[C@H](CCCCN)NC(=O)[C@H](Cc2ccc(O)cc2)NC(=O)CNC(=O)[C@@H]2CSSC[C@H](NC1=O)C(=O)N[C@@H](Cc1c[nH]cn1)C(=O)N[C@@H](CCC(=O)O)C(=O)N[C@H](C(N)=O)CSSC[C@H](NC(=O)[C@@H](NC(=O)CNC(=O)[C@@H](N)CC(N)=O)C(C)C)C(=O)N2` [compound 159] (HELM PEPTIDE1{N.G.V.C.C.G.Y.K.L.C.H.E.C.[am]}$PEPTIDE1,PEPTIDE1,4:R3-13:R3|PEPTIDE1,PEPTIDE1,5:R3-10:R3$$$V2.0), 4900 nM.
Turning to YNGVCCGYILCHPC [compound 208], the “Av IC50 Displacement of 3H-nisoxetine from hNET” value in test [1] is given as −2.00.
In turn, `CC(C)C[C@@H]1NC(=O)[C@H](CCCCN)NC(=O)[C@H](Cc2ccc(O)cc2)NC(=O)CNC(=O)[C@@H]2CSSC[C@H](NC1=O)C(=O)N[C@@H](Cc1c[nH]cn1)C(=O)N1CCC[C@H]1C(=O)N[C@H](C(N)=O)CSSC[C@H](NC(=O)[C@@H](NC(=O)CNC(=O)[C@@H](N)CCCNC(=N)N)C(C)C)C(=O)N2` [compound 98] showed an IC50 in test [1] of 513 nM.

As usually defined, the IC50 is the concentration needed to halve the response being measured. Lower therefore signals greater potency in that assay.
